We go through two compounds from patent US20240271223A1, “BIOMARKERS FOR A THERAPY COMPRISING AN ANGIOGENESIS INHIBITOR” (Eisai R&D Management Co., Ltd., priority 2021, published 2024).

In test [1] the test system is 12 mouse syngeneic tumor models. Description: Changes in MVD gene score of 12 mouse syngeneic tumor models with or without angiogenesis inhibitor treatment (RNA-seq). Format: in vivo. As to conditions: tumors collected on day 8, p<0.05, t-test, FIG. 7; for Gene score compared with non-treatment group: lenvatinib 10 mg/kg once daily oral, aflibercept 5 mg/kg twice a week i.p. The protocol:
Twelve mouse cell lines were cultured with appropriate medium (Table 1). Cells were harvested and suspended with Hanks' Balanced Salt Solution (HBSS) and subcutaneously inoculated into right lateral side of 7-week old immune competent mice. Tumor size was measured by an electronic digital caliper (Digimatic Caliper, Mitsutoyo Corporation) and calculated with a formula; (short diameter (mm))^2×(long diameter (mm))/2. Tumors around 100 mm^3 were resected and soaked with RNA later. mRNA extracted from tumor samples were followed by RNA-seq using Illumina NovaSeq™ (GENEWIZ) to quantify expression levels of mRNA. Sequenced reads were subjected to quality assessment by FastQC (version 0.11.5). Illumina adaptor sequences and low quality bases were trimmed by using Trimmomatic (version 0.36). Filtered reads were mapped to the mouse genome (GRCm38/mm10 and Ensembl 88) by using STAR (v2.5.2b). Gene expression levels in transcripts per million (TPM) for all samples were estimated by using RSEM (v1.2.31). Using the same tumor samples, CD31 was stained with anti-CD31 antibody (Clone SZ31, dianova) to detect endothelial cells in IHC analysis. Microvessel density (MVDCD31) score was calculated by dividing the number of CD31 positive blood vessels by tumor area using HALO (Indica Lab).
We developed a gene score by the following steps. First, we extracted 1086 genes that were highly expressed in an endothelial cell population using scRNA-seq data of the Hepa 1-6 mouse HCC model. Next, we extracted genes with TOP20 Pearson's correlation coefficient between its logarithm-transformed expression values (log2 (TPM+1)) and MVD (IHCCD31) using 12 syngeneic tumor models that were measured by RNA-seq and IHC, respectively. Of these 20 genes, we selected seven genes that had known association with vasculature from literature search and added 3 well-known endothelial cell markers to the gene list (Table 2). We further selected genes whose expression were specific to endothelial cell cluster by manually checking t-SNE plots of scRNA-seq data of Hepa 1-6 HCC model. Finally, six genes were chosen as mouse MVD gene set. The gene score of sample i was calculated as follows: […]
The twelve mouse cell lines shown in Table 1 were subcutaneously inoculated into right lateral side of 7-week-old immune competent mice. Mice were randomly grouped into non-treatment and lenvatinib treatment groups when the tumor size reached approximately 100 mm^3 (n=3 for each group). Lenvatinib (10 mg/kg once daily) was orally administered for mice of lenvatinib treatment group and aflibercept (5 mg/kg twice a week) was administered intraperitoneally for mice of aflibercept treatment group for a week. The day on which treatment was started was designated as day 1. […]

For test [2] the test system is unchanged. Description: Antitumor activity of lenvatinib on mouse syngeneic tumor models (ΔT/C). Format: in vivo. As to conditions: 10 mg/kg once daily oral; ΔT/C on day 15; BNL, Renca and B16-F10 vs other nine models; p<0.05, t-test; FIG. 3c. The protocol: The twelve mouse cell lines shown in Table 1 were subcutaneously inoculated into the right lateral side of 7-week-old immune competent mice. Mice were randomly grouped when the tumor size reached approximately 100 mm^3. Lenvatinib (10 mg/kg once daily) was orally administered for mice of lenvatinib treatment group. The day on which treatment was started was designated as day 1. The values of antitumor activity (ΔT/C) were calculated as ΔT/ΔC×100 where ΔT and ΔC are changes in the mean tumor volumes for drug treated and untreated control groups, respectively. When the tumor volumes decreased from the initial tumor volumes, ΔT/C values were calculated as (Tt−T1)/T1×100, where Tt and T1 are the mean tumor volumes of drug treated group on day t after the start of treatment and day 1, respectively. ΔT/C on day 15 was used for the analysis.

Test [3] deals with PLC/PRF/5 xenograft HCC model and two HCC patient-derived xenograft models. The settings on record: cited from earlier work.

As for `COc1cc2nccc(Oc3ccc(NC(=O)NC4CC4)c(Cl)c3)c2cc1C(N)=O` [lenvatinib, 4-(3-chloro-4-(cyclopropylaminocarbonyl)aminophenoxy)-7-methoxy-6-quinolinecarb oxamide], in test [1], the “Gene score compared with non-treatment group” value is given as “decreased” and the “number of tumor models (of 12) in which gene score was decreased vs non-treatment group” value amounted to 10 tumor models. Moreover, in test [2], the “antitumor activity (ΔT/C) in lenvatinib sensitive models compared to other nine tumor models” value is listed as “more antitumor activity”. Further, in test [3], the tumor microvessel density result is reported as “reduced tumor microvessel density”.

As to “aflibercept: inhibitor of VEGF which binds to circulating VEGF and acts as VEGF-trap, leading to inhibiting tumor angiogenesis”, in test [1], the “Gene score compared with non-treatment group” value is recorded as “significantly decreased” and the “number of tumor models (of 12) in which gene score was decreased vs non-treatment group” value is “eight”.
